pIC50: −log10 of the molar value.
Target: T1, AA (Homo sapiens, UniProt O14965)
T1 sequence (O14965 1-403): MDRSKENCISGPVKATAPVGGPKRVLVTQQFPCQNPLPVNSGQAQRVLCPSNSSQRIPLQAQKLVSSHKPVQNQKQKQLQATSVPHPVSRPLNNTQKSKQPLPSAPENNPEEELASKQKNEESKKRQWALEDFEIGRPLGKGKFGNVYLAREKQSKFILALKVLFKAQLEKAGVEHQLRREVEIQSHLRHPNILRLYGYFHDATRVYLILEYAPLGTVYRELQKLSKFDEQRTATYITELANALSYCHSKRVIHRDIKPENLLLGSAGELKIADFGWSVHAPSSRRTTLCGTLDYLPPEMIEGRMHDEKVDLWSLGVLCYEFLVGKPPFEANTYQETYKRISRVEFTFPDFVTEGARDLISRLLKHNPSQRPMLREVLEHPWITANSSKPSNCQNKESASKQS
Experiment: AA IC50 (Table 1; no method given)
Type: biochemical
Settings: Table 2, AurA IC50; class symbols; read-out: AurA IC50

pIC50 | Structure (SMILES)
> 7.00 | CCC(CC)N1CCC(=O)N(CC)c2cnc(Nc3ccc4c(c3)CS(=O)(=O)C4)nc21 [compound 120, 2-(2,2-Dioxo-2,3-dihydro-1H-2lambda*6*- benzo[c]thiophen-5-ylamino)-5-ethyl-9-(1-ethyl-propyl)-5,7,8,9-tetrahydro-pyrimido[4,5-b][1,4]diazepin-6-one]
> 6.00 | CN1C(=O)CCN(C(C)(C)C)c2nc(Nc3ccc4c(c3)CS(=O)(=O)C4)ncc21 [compound 121, 9-tert-Butyl-2-(2,2-dioxo-2,3-dihydro-1H-2lambda*6*-benzo[c]thiophen-5-ylamino)-5-methyl-5,7,8,9-tetrahydro-pyrimido[4,5-b][1,4]diazepin-6-one]
> 6.00 | CCN1C(=O)CCN(C(C)(C)C)c2nc(Nc3ccc4c(c3)CS(=O)(=O)C4)ncc21 [compound 122, 9-tert-Butyl-2-(2,2-dioxo-2,3-dihydro-1H-2lambda*6*-benzo[c]thiophen-5-ylamino)-5-ethyl-5,7,8,9-tetrahydro-pyrimido[4,5-b][1,4]diazepin-6-one]
> 5.00 | CCN1C(=O)CCNc2nc(Nc3ccc4c(c3)CS(=O)(=O)C4)ncc21 [compound 126, 2-(2,2-Dioxo-2,3-dihydro-1H-2lambda*6*- benzo[c]thiophen-5-ylamino)-5-ethyl-5,7,8,9-tetrahydro-pyrimido[4,5-b][1,4]diazepin-6-one]
> 6.00 | COc1ccccc1N1CCC(=O)N(C)c2cnc(Nc3ccc4c(c3)CS(=O)(=O)C4)nc21 [compound 133, 2-(2,2-Dioxo-2,3-dihydro-1H-2lambda*6*- benzo[c]thiophen-5-ylamino)-9-(2-methoxy-phenyl)-5-methyl-5,7,8,9-tetrahydro-pyrimido[4,5-b][1,4]diazepin-6-one]
> 6.00 | Cc1ccccc1N1CCC(=O)N(C)c2cnc(Nc3ccc4c(c3)CS(=O)(=O)C4)nc21 [compound 134, 2-(2,2-Dioxo-2,3-dihydro-1H-2lambda*6*- benzo[c]thiophen-5-ylamino)-5-methyl-9-o-tolyl-5,7,8,9-tetrahydro-pyrimido[4,5-b][1,4]diazepin-6-one]
> 6.00 | CN1C(=O)CCN(c2ccccc2Cl)c2nc(Nc3ccc4c(c3)CS(=O)(=O)C4)ncc21 [compound 135, 9-(2-Chloro-phenyl)-2-(2,2-dioxo-2,3-dihydro-1H-2lambda*6*-benzo[c]thiophen-5-ylamino)-5-methyl-5,7,8,9-tetrahydro-pyrimido[4,5-b][1,4]diazepin-6-one]
> 6.00 | COc1cccc(N2CCC(=O)N(C)c3cnc(Nc4ccc5c(c4)CS(=O)(=O)C5)nc32)c1 [compound 136, 2-(2,2-Dioxo-2,3-dihydro-1H-2lambda*6*- benzo[c]thiophen-5-ylamino)-9-(3-methoxy-phenyl)-5-methyl-5,7,8,9-tetrahydro-pyrimido[4,5-b][1,4]diazepin-6-one]
> 5.00 | CC(Cc1c[nH]c2ccccc12)Nc1ncc2c(n1)N(C1CCCC1)CCC(=O)N2C (stereo not drawn) [compound 175, 9-Cyclopentyl-2-[2-(1H-indo1-3-yl)-1-methyl-ethylamino]-5-methyl-5,7,8,9-tetrahydro-pyrimido[4,5-b][1,4]diazepin-6-one]
> 5.00 | COc1ccc(N2CCN(c3ncc4c(n3)N(C3CCCC3)CCC(=O)N4C)CC2)cc1 [compound 213, 9-Cyclopentyl-2-[4-(4-methoxy-phenyl)-piperazin-1-yl]-5-methyl-5,7,8,9-tetrahydro-pyrimido[4,5-b][1,4]diazepin-6-one]
> 6.00 | CC(=O)Nc1ccc(Nc2ncc3c(n2)N(C2CCCC2)CCC(=O)N3C)cc1C(F)(F)F [compound 286, N-[4-(9-Cyclopentyl-5-methyl-6-oxo-6,7,8,9-tetrahydro-5H-pyrimido[4,5-b][1,4]diazepin-2-ylamino)-2-trifluoromethyl-phenyl]-acetamide]

Further lines, the molecule ahead of its results:

Structure (SMILES) | pIC50
CN1C(=O)CCN(c2ccccc2F)c2nc(Nc3ccc4c(c3)CS(=O)(=O)C4)ncc21 [compound 73, 2-(2,2-Dioxo-2,3-dihydro-1H-2lambda*6*- benzo[c]thiophen-5-ylamino)-9-(2-fluoro-phenyl)-5-methyl-5,7,8,9-tetrahydro-pyrimido[4,5-b][1,4]diazepin-6-one] | > 7.00
CN1C(=O)CCN(c2ccccc2)c2nc(Nc3ccc4c(c3)CS(=O)(=O)C4)ncc21 [compound 75, 2-(2,2-Dioxo-2,3-dihydro-1H-2lambda*6*- benzo[c]thiophen-5-ylamino)-5-methyl-9-phenyl-5,7,8,9-tetrahydro-pyrimido[4,5-b][1,4]diazepin-6-one] | > 7.00
CCC(CC)N1CCC(=O)N(C)c2cnc(Nc3ccc4c(c3)CS(=O)(=O)C4)nc21 [compound 79, 2-(2,2-Dioxo-2,3-dihydro-1H-2lambda*6*- benzo[c]thiophen-5-ylamino)-9-(1-ethyl-propyl)-5-methyl-5,7,8,9-tetrahydro-pyrimido[4,5-b][1,4]diazepin-6-one] | > 7.00
CC(C)C1CC(=O)N(C)c2cnc(Nc3ccc4c(c3)CS(=O)(=O)C4)nc2N1C1CCCC1 (stereo not drawn) [compound 80, 9-Cyclopentyl-2-(2,2-dioxo-2,3-dihydro-1H-2lambda*6*-benzo[c]thiophen-5-ylamino)-8-isopropyl-5-methyl-5,7,8,9-tetrahydro-pyrimido[4,5-b][1,4]diazepin-6-one] | > 6.00
CN1C(=O)CCN(C2CCOCC2)c2nc(Nc3ccc4c(c3)CS(=O)(=O)C4)ncc21 [compound 81, 2-(2,2-Dioxo-2,3-dihydro-1H-2lambda*6*- benzo[c]thiophen-5-ylamino)-5-methyl-9-(tetrahydro-pyran-4-yl)-5,7,8,9-tetrahydro-pyrimido[4,5-b][1,4]diazepin-6-one] | > 6.00
CN1C(=O)CCN(Cc2ccccc2)c2nc(Nc3ccc4c(c3)CS(=O)(=O)C4)ncc21 [compound 82, 9-Benzyl-2-(2,2-dioxo-2,3-dihydro-1H-2lambda*6*-benzo[c]thiophen-5-ylamino)-5-methyl-5,7,8,9-tetrahydro-pyrimido[4,5-b][1,4]diazepin-6-one] | > 6.00
CN1CCN(S(=O)(=O)c2ccc(Nc3ncc4c(n3)N(C3CCCC3)CCC(=O)N4C)cc2)CC1 [compound 105, 9-Cyclopentyl-5-methyl-2-[4-(4-methyl-piperazine-1-sulfonyl)-phenylamino]-5,7,8,9-tetrahydro-pyrimido[4,5-b][1,4]diazepin-6-one] | > 6.00
CN1C(=O)CCN(CC2CC2)c2nc(Nc3ccc4c(c3)CS(=O)(=O)C4)ncc21 [compound 114, 9-Cyclopropylmethyl-2-(2,2-dioxo-2,3-dihydro-1H-2lambda*6*-benzo[c]thiophen-5-ylamino)-5-methyl-5,7,8,9-tetrahydro-pyrimido[4,5-b][1,4]diazepin-6-one] | > 7.00
CC(C)CCN1CCC(=O)N(C)c2cnc(Nc3ccc4c(c3)CS(=O)(=O)C4)nc21 [compound 116, 2-(2,2-Dioxo-2,3-dihydro-1H-2lambda*6*- benzo[c]thiophen-5-ylamino)-5-methyl-9-(3-methyl-butyl)-5,7,8,9-tetrahydro-pyrimido[4,5-b][1,4]diazepin-6-one] | > 6.00
CN1C(=O)C2(CCCC2)CN(C2CCCC2)c2nc(Nc3ccc4c(c3)CS(=O)(=O)C4)ncc21 [compound 118, (9-Cyclopentyl-2-(2,2-dioxo-2,3-dihydro-1H-2lambda*6*-benzo[c]thiophen-5-ylamino)5-methyl-6-oxo-6,7,8,9-tetrahydro-5H-spiro[pyrimido[4,5-b][1,4]diazepin-3,1′-cyclopentane]] | > 6.00
